Row | Structure (SMILES) | melting point
1 | C=CCOC(=O)NC12CC3CC(CC(C3)C1)C2 | 56 to 58 °C
2 | C#CC(C)(C)OC(=O)Nc1ccc(-c2ncn(-c3ccc(C(F)(F)F)cc3)n2)cc1 | 187 to 189 °C
3 | CC1(C)CC(=O)Nc2cc3nc(-c4ccccc4)[nH]c3cc21 | 296 to 298 °C
4 | CCOC(=O)c1c(N2CCOCC2)c2ccc(C)nc2n(CC)c1=O | 129 to 131 °C
5 | CC(Oc1ncn(-c2ccc(Br)cc2)n1)C(=O)O (stereo not given) | 195 to 197 °C
6 | Cc1cc(C(=O)O)ccc1-c1ccccc1C(F)(F)F | 171 to 174 °C
7 | CS(=O)c1c(Br)nn(-c2c(Cl)cc(C(F)(F)F)cc2Cl)c1N (stereo not given) | 135 to 136 °C
8 | c1ccc(-c2ccccc2OCCCCCCOc2ccccc2-c2ccccc2)cc1 | 92 to 95 °C
9 | CN1C(=O)C(C)(C)N=C(c2ccccc2F)c2cc(N3C(=O)NC(C)(C)C3=O)ccc21 | 286 to 287 °C
10 | COc1cc(C(=O)N[C@@H]2c3cc(OC(F)(F)F)ccc3OC(C)(C)[C@H]2O)c([N+](=O)[O-])cc1OC | 97 °C
11 | Cn1c(N2CCOCC2)nc(C(=O)NCc2ccc(Cl)c(Cl)c2)c(O)c1=O | 100 to 102 °C
12 | CC(C)(C)C(=O)c1cnn2c1NCCC2 | 169 to 170 °C
13 | CCC(C)(C)NC(=O)c1cnc2cccc(C)n2c1=O | 87 to 89 °C
14 | CCN(CC)c1c(Cl)cc(C(O)CNC(C)(C)C)cc1Cl (stereo not given) | 93 to 96 °C
15 | CC(C)(C)OC(=O)N1CCC(CCCCN2C(=O)c3ccccc3C2=O)CC1 | 100 to 102 °C
16 | O=C1NC(=O)C(=Cc2ccc(N3CCC(NC[C@H](O)COc4ccccc4)CC3)cc2)S1 | 208 to 210 °C
17 | Nc1c(-c2ccc(C(F)(F)F)cc2)nc2ccc(F)cc2c1C(=O)O | 260 to 262 °C
18 | Cc1cc(-c2ccc(C#N)cc2)cn2cc(-c3ccc(C#N)cc3)nc12 | 283 to 285 °C
19 | COc1ccnc(-c2nc(=O)c3ccccc3s2)c1 | 214 to 215 °C
20 | CCCNc1ncnc2c1ncn2Cc1c(F)cccc1Cl | 166 to 167 °C
21 | O=c1c(-c2ccc(F)cc2)c(-c2ccc(SC(F)(F)F)cc2)cnn1Cc1ccccc1 | 145 to 146 °C
22 | NS(=O)(=O)c1ccc(-c2oc3cc(F)ccc3c(=O)c2-c2ccc(Cl)c(Cl)c2)cc1 | 190 to 191 °C
23 | COC(=O)c1nc2cc(I)ccc2c(O)c1C(=O)OC | 243 to 244 °C
24 | CCNc1nc(OCc2ccccc2)nc2c1ncn2C1OC(CO)C(O)C1O (stereo not given) | 170 to 171 °C
25 | CCN1CCN(c2nc(-c3ccc(OCCO)cc3OC)cc3ccccc23)CC1 | 140 to 142 °C

Row | Structure (SMILES) | melting point
26 | Nc1ccc(Oc2ccc(O)c(C(=O)O)c2)cc1 | 223 to 224 °C
27 | CC(C)(C)C1=CC(=CC(=O)O)C=C(C(C)(C)C)C1=O | 148 to 150 °C
28 | CS(=O)(=O)c1ccc(C(=O)c2ccc(Cl)cc2)cc1 | 176 °C
29 | COCn1ncc2cc(Cl)c(NC(=O)c3cc(C(F)(F)F)nn3-c3ncccc3Cl)c(C(=O)NC(C)C)c21 | 180 to 182 °C
30 | O=c1[nH]c2cc(C(F)(F)F)cc(C(F)(F)F)c2[nH]c1=O | 305 to 308 °C
31 | CCOc1cc(C(=CC#N)c2ccc(OC)c([N+](=O)[O-])c2)ccc1OC | 141 to 143 °C
32 | N#Cc1c(C(=Nc2ccccc2)c2ccccc2)n(O)c2ccccc12 | 188 to 190 °C
33 | CC1(COCCCOc2ccc(C(=O)O)cc2)COC1 | 102 °C
34 | C=CC=Cc1cc(Oc2cnc(N)nc2N)c(I)cc1C | 195 to 197 °C
35 | CNc1cc(NS(=O)(=O)c2ccc(N)cc2)nc(N2CCCC2)n1 | 299 to 301 °C
36 | N#Cc1csc2c1CCN(C(=O)C(F)(F)F)CC2c1ccccc1 (stereo not given) | 107 °C
37 | Cc1cc(-n2ccnc2)c2cccc(OCc3c(Cl)ccc(S(=O)(=O)N4CCC[C@H]4C(=O)NCC4CC4)c3Cl)c2n1 | 100 °C
38 | O=C(NCCO)c1ccnc(-c2cccc3cc(Cc4cccc(C(F)(F)F)c4)sc23)c1 | 168 to 169 °C
39 | Cc1cc2c(cc1O)C(C1(CC3CCCC3)CC1)N(C)CC2 (stereo not given) | 136 to 138 °C
40 | CSC1C(=O)Nc2c(-c3ccccc3)cccc21 (stereo not given) | 164 to 166 °C
41 | COC(=O)C1=C(CCc2cccs2)NC(CC(=O)N2CCN(C)CC2)=C(C(=O)OC)C1c1c(Cl)cccc1Cl (stereo not given) | 142 to 145 °C
42 | O=C1OC(=O)c2cc3occc3c3cccc1c23 | 160 to 165 °C
43 | Cc1cc(-c2ccc(C(F)(F)F)cc2)cc(-c2ccnc(-c3cccc(S(N)(=O)=O)c3)c2)n1 | > 250 °C
44 | CCc1ccc(S(=O)(=O)Nc2ccc(Cl)cc2)cc1 | 120 to 122 °C
45 | CCOC(=O)C1=C(N)NC(C)=C(C(=O)OC)C1c1cccc([N+](=O)[O-])c1 (stereo not given) | 124 °C
46 | CCCCCCCCCCCCOC(=O)c1cc(C(C)(C)C)c(OC(=O)c2cc(C(C)(C)C)c(O)c(C(C)(C)C)c2)c(C(C)(C)C)c1 | 53 to 56 °C
47 | O=C(O)CCC(=O)NNc1ccnc2c(NC(=O)c3c(Cl)cccc3Cl)cccc12 | 166 to 170 °C
48 | O=C(O)c1ccc2nc(-n3nc4c(c3O)-c3ccccc3CC4)sc2c1 | > 280 °C
49 | O=C(Nc1c(C(O)(C(F)(F)F)C(F)(F)F)ccc2ccccc12)c1ccccc1Cl | 209 to 211 °C
50 | O=C(Nc1cccc(Br)c1)NC1C(=O)N(CC23CC4CC(CC(C4)C2)C3)c2ccccc2N(c2ccccc2)C1=O (stereo not given) | 254 °C

Reference: a melting point compilation (Tetko et al.; mined from patent text by program, amines drawn as free bases though some values may be those of a salt)
